15 compounds from patent US12049450B2, “Pyridyloxy-carboxylate derivative and preparation method therefor, herbicidal composition, and use” (Qingdao Kingagroot Chemical Compound Co., Ltd., priority 2018, dated 2024) can be followed below.

Common to all, as to assay: Post-emergence test experiment (greenhouse pot, spray at 2-3 leaf stage)
What all share (format): in vivo
Holding throughout (conditions): 1000 g/ha; post-emergence spray at 2-3 leaf stage; assessed after 3 weeks; fresh weight inhibition rate

In test [1] the test system is Abutilon theophrasti. In outline:
(§1)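 Activity graded levels 0-5 by fresh-weight inhibition (level 5 above 85%, level 0 below 5%), assessed 3 weeks after treatment. Plants grown in greenhouse pots were sprayed post-emergence at 2-3 leaves using acetone/tween-80 solutions with methyl oleate synergist (1.5 L/ha).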

For test [2], the system named is Digitaria sanguinalis. Put shortly: as §1
The test system of test [3] is Echinochloa crusgalli. Put shortly:
as §1

For test [4], the system named is Galium spurium. In outline:
as §1

Test [5] concerns Monochoria vaginalis. In outline: as §1

As to `CC(Oc1nc(F)c(Cl)c(N)c1Cl)C(=O)SCc1ccccc1C#N` (stereo not drawn) [Compound 224], the “Activity level (growth inhibition rate) Abutilon theophrasti” value in test [1] was 5 (Level 5: the growth inhibition rate is greater than 85%). The “Activity level (growth inhibition rate) Digitaria sanguinalis” value in test [2] is listed as 5 (Level 5: the growth inhibition rate is greater than 85%). The “Activity level (growth inhibition rate) Echinochloa crusgalli” value in test [3] is 5 (Level 5: the growth inhibition rate is greater than 85%). Moreover, the “Activity level (growth inhibition rate) Galium spurium” value in test [4] is 5 (Level 5: the growth inhibition rate is greater than 85%). The “Activity level (growth inhibition rate) Monochoria Vaginalis” value in test [5] is recorded as 5 (Level 5: the growth inhibition rate is greater than 85%).
For the compound `CC(Oc1nc(F)c(Cl)c(N)c1Cl)C(=O)SCc1ccc(C#N)cc1` (stereo not drawn) [Compound 225], in test [1], the “Activity level (growth inhibition rate) Abutilon theophrasti” value is recorded as 5 (Level 5: the growth inhibition rate is greater than 85%). Further, in test [2], the “Activity level (growth inhibition rate) Digitaria sanguinalis” value is reported as 5 (Level 5: the growth inhibition rate is greater than 85%). For the same compound, the “Activity level (growth inhibition rate) Echinochloa crusgalli” value in test [3] is listed as 5 (Level 5: the growth inhibition rate is greater than 85%). The “Activity level (growth inhibition rate) Galium spurium” value in test [4] was 5 (Level 5: the growth inhibition rate is greater than 85%). The “Activity level (growth inhibition rate) Monochoria Vaginalis” value in test [5] is recorded as 5 (Level 5: the growth inhibition rate is greater than 85%).
For `CC(Oc1nc(F)c(Cl)c(N)c1Cl)C(=O)SCc1cccc(C#N)c1` (stereo not drawn) [Compound 226], the “Activity level (growth inhibition rate) Abutilon theophrasti” value in test [1] is recorded as 5 (Level 5: the growth inhibition rate is greater than 85%). Besides, the “Activity level (growth inhibition rate) Digitaria sanguinalis” value in test [2] was 5 (Level 5: the growth inhibition rate is greater than 85%). Also, in test [3], the “Activity level (growth inhibition rate) Echinochloa crusgalli” value is listed as 5 (Level 5: the growth inhibition rate is greater than 85%). Further, the “Activity level (growth inhibition rate) Galium spurium” value in test [4] is 5 (Level 5: the growth inhibition rate is greater than 85%). Moreover, the “Activity level (growth inhibition rate) Monochoria Vaginalis” value in test [5] was 5 (Level 5: the growth inhibition rate is greater than 85%).
Consider `CC(Oc1nc(F)c(Cl)c(N)c1Cl)C(=O)SCc1ccccc1Cl` (stereo not drawn) [Compound 227], for which the “Activity level (growth inhibition rate) Abutilon theophrasti” value in test [1] was 5 (Level 5: the growth inhibition rate is greater than 85%). Also, the “Activity level (growth inhibition rate) Digitaria sanguinalis” value in test [2] is recorded as 5 (Level 5: the growth inhibition rate is greater than 85%). The “Activity level (growth inhibition rate) Echinochloa crusgalli” value in test [3] is recorded as 5 (Level 5: the growth inhibition rate is greater than 85%). Further, in test [4], the “Activity level (growth inhibition rate) Galium spurium” value is on record as 5 (Level 5: the growth inhibition rate is greater than 85%). The “Activity level (growth inhibition rate) Monochoria Vaginalis” value in test [5] is recorded as 5 (Level 5: the growth inhibition rate is greater than 85%).
Regarding `CC(Oc1nc(F)c(Cl)c(N)c1Cl)C(=O)SCc1ccc(Cl)cc1` (stereo not drawn) [Compound 228], the “Activity level (growth inhibition rate) Abutilon theophrasti” value in test [1] is 5 (Level 5: the growth inhibition rate is greater than 85%). Moreover, in test [2], the “Activity level (growth inhibition rate) Digitaria sanguinalis” value is 5 (Level 5: the growth inhibition rate is greater than 85%). In addition, the “Activity level (growth inhibition rate) Echinochloa crusgalli” value in test [3] is recorded as 5 (Level 5: the growth inhibition rate is greater than 85%). In addition, the “Activity level (growth inhibition rate) Galium spurium” value in test [4] is 5 (Level 5: the growth inhibition rate is greater than 85%). Further, the “Activity level (growth inhibition rate) Monochoria Vaginalis” value in test [5] was 5 (Level 5: the growth inhibition rate is greater than 85%).
Take `CC(Oc1nc(F)c(Cl)c(N)c1Cl)C(=O)SCc1ccccc1Br` (stereo not drawn) [Compound 229]: in test [1], the “Activity level (growth inhibition rate) Abutilon theophrasti” value was 5 (Level 5: the growth inhibition rate is greater than 85%). Also, in test [2], the “Activity level (growth inhibition rate) Digitaria sanguinalis” value is listed as 5 (Level 5: the growth inhibition rate is greater than 85%). For the same compound, the “Activity level (growth inhibition rate) Echinochloa crusgalli” value in test [3] is 5 (Level 5: the growth inhibition rate is greater than 85%). In addition, the “Activity level (growth inhibition rate) Galium spurium” value in test [4] was 5 (Level 5: the growth inhibition rate is greater than 85%). In addition, in test [5], the “Activity level (growth inhibition rate) Monochoria Vaginalis” value is listed as 5 (Level 5: the growth inhibition rate is greater than 85%).
On to `CC(Oc1nc(F)c(Cl)c(N)c1Cl)C(=O)SCc1cccc(Br)c1` (stereo not drawn) [Compound 230], for which the “Activity level (growth inhibition rate) Abutilon theophrasti” value in test [1] is on record as 5 (Level 5: the growth inhibition rate is greater than 85%). The “Activity level (growth inhibition rate) Digitaria sanguinalis” value in test [2] was 5 (Level 5: the growth inhibition rate is greater than 85%). The “Activity level (growth inhibition rate) Echinochloa crusgalli” value in test [3] is recorded as 5 (Level 5: the growth inhibition rate is greater than 85%). Moreover, the “Activity level (growth inhibition rate) Galium spurium” value in test [4] was 5 (Level 5: the growth inhibition rate is greater than 85%). Also, in test [5], the “Activity level (growth inhibition rate) Monochoria Vaginalis” value is 5 (Level 5: the growth inhibition rate is greater than 85%).
As to `CC(Oc1nc(F)c(Cl)c(N)c1Cl)C(=O)SCc1ccc(Br)cc1` (stereo not drawn) [Compound 231], the “Activity level (growth inhibition rate) Abutilon theophrasti” value in test [1] is 5 (Level 5: the growth inhibition rate is greater than 85%). The “Activity level (growth inhibition rate) Digitaria sanguinalis” value in test [2] was 5 (Level 5: the growth inhibition rate is greater than 85%). Also, the “Activity level (growth inhibition rate) Echinochloa crusgalli” value in test [3] was 5 (Level 5: the growth inhibition rate is greater than 85%). Further, the “Activity level (growth inhibition rate) Galium spurium” value in test [4] is 5 (Level 5: the growth inhibition rate is greater than 85%). In test [5], the “Activity level (growth inhibition rate) Monochoria Vaginalis” value is given as 5 (Level 5: the growth inhibition rate is greater than 85%).
On to `CC(Oc1nc(F)c(Cl)c(N)c1Cl)C(=O)SCc1ccccc1C(F)(F)F` (stereo not drawn) [Compound 232], for which the “Activity level (growth inhibition rate) Abutilon theophrasti” value in test [1] was 5 (Level 5: the growth inhibition rate is greater than 85%). Also, the “Activity level (growth inhibition rate) Digitaria sanguinalis” value in test [2] is 5 (Level 5: the growth inhibition rate is greater than 85%). In test [3], the “Activity level (growth inhibition rate) Echinochloa crusgalli” value was 5 (Level 5: the growth inhibition rate is greater than 85%). Further, the “Activity level (growth inhibition rate) Galium spurium” value in test [4] is 5 (Level 5: the growth inhibition rate is greater than 85%). The “Activity level (growth inhibition rate) Monochoria Vaginalis” value in test [5] is on record as 5 (Level 5: the growth inhibition rate is greater than 85%).
Regarding `CC(Oc1nc(F)c(Cl)c(N)c1Cl)C(=O)SCc1cccc(C(F)(F)F)c1` (stereo not drawn) [Compound 233], the “Activity level (growth inhibition rate) Abutilon theophrasti” value in test [1] was 5 (Level 5: the growth inhibition rate is greater than 85%). The “Activity level (growth inhibition rate) Digitaria sanguinalis” value in test [2] was 5 (Level 5: the growth inhibition rate is greater than 85%). Besides, in test [3], the “Activity level (growth inhibition rate) Echinochloa crusgalli” value is on record as 5 (Level 5: the growth inhibition rate is greater than 85%). In addition, in test [4], the “Activity level (growth inhibition rate) Galium spurium” value was 5 (Level 5: the growth inhibition rate is greater than 85%). The “Activity level (growth inhibition rate) Monochoria Vaginalis” value in test [5] is 5 (Level 5: the growth inhibition rate is greater than 85%).
`CC(Oc1nc(F)c(Cl)c(N)c1Cl)C(=O)SCc1ccc(C(F)(F)F)cc1` (stereo not drawn) [Compound 234]: the “Activity level (growth inhibition rate) Abutilon theophrasti” value in test [1] was 5 (Level 5: the growth inhibition rate is greater than 85%). The “Activity level (growth inhibition rate) Digitaria sanguinalis” value in test [2] is given as 5 (Level 5: the growth inhibition rate is greater than 85%). For the same compound, the “Activity level (growth inhibition rate) Echinochloa crusgalli” value in test [3] is on record as 5 (Level 5: the growth inhibition rate is greater than 85%). Also, the “Activity level (growth inhibition rate) Galium spurium” value in test [4] was 5 (Level 5: the growth inhibition rate is greater than 85%). In addition, the “Activity level (growth inhibition rate) Monochoria Vaginalis” value in test [5] was 5 (Level 5: the growth inhibition rate is greater than 85%).
`CC(Oc1nc(F)c(Cl)c(N)c1Cl)C(=O)SCc1ccccn1` (stereo not drawn) [Compound 235]: in test [1], the “Activity level (growth inhibition rate) Abutilon theophrasti” value is given as 5 (Level 5: the growth inhibition rate is greater than 85%). In addition, the “Activity level (growth inhibition rate) Digitaria sanguinalis” value in test [2] was 5 (Level 5: the growth inhibition rate is greater than 85%). In addition, the “Activity level (growth inhibition rate) Echinochloa crusgalli” value in test [3] is listed as 5 (Level 5: the growth inhibition rate is greater than 85%). In test [4], the “Activity level (growth inhibition rate) Galium spurium” value was 5 (Level 5: the growth inhibition rate is greater than 85%). Also, the “Activity level (growth inhibition rate) Monochoria Vaginalis” value in test [5] is listed as 5 (Level 5: the growth inhibition rate is greater than 85%).
In the case of `CC(Oc1nc(F)c(Cl)c(N)c1Cl)C(=O)SCc1ccncc1` (stereo not drawn) [Compound 236], the “Activity level (growth inhibition rate) Abutilon theophrasti” value in test [1] is 5 (Level 5: the growth inhibition rate is greater than 85%). For the same compound, in test [2], the “Activity level (growth inhibition rate) Digitaria sanguinalis” value is 5 (Level 5: the growth inhibition rate is greater than 85%). The “Activity level (growth inhibition rate) Echinochloa crusgalli” value in test [3] is 5 (Level 5: the growth inhibition rate is greater than 85%). In addition, the “Activity level (growth inhibition rate) Galium spurium” value in test [4] is 5 (Level 5: the growth inhibition rate is greater than 85%). Further, the “Activity level (growth inhibition rate) Monochoria Vaginalis” value in test [5] is listed as 5 (Level 5: the growth inhibition rate is greater than 85%).
On to `CC(Oc1nc(F)c(Cl)c(N)c1Cl)C(=O)SCc1cccnc1` (stereo not drawn) [Compound 237], for which the “Activity level (growth inhibition rate) Abutilon theophrasti” value in test [1] is 5 (Level 5: the growth inhibition rate is greater than 85%). In test [2], the “Activity level (growth inhibition rate) Digitaria sanguinalis” value was 5 (Level 5: the growth inhibition rate is greater than 85%). Further, in test [3], the “Activity level (growth inhibition rate) Echinochloa crusgalli” value is 5 (Level 5: the growth inhibition rate is greater than 85%). In test [4], the “Activity level (growth inhibition rate) Galium spurium” value is recorded as 5 (Level 5: the growth inhibition rate is greater than 85%). In addition, the “Activity level (growth inhibition rate) Monochoria Vaginalis” value in test [5] is given as 5 (Level 5: the growth inhibition rate is greater than 85%).
For `CC(Oc1nc(F)c(Cl)c(NCc2ccc(C(F)(F)F)o2)c1Cl)C(=O)SCc1ccccc1` (stereo not drawn) [Compound 239], in test [1], the “Activity level (growth inhibition rate) Abutilon theophrasti” value is 5 (Level 5: the growth inhibition rate is greater than 85%). Further, in test [2], the “Activity level (growth inhibition rate) Digitaria sanguinalis” value is 5 (Level 5: the growth inhibition rate is greater than 85%). In test [3], the “Activity level (growth inhibition rate) Echinochloa crusgalli” value is 5 (Level 5: the growth inhibition rate is greater than 85%). Moreover, the “Activity level (growth inhibition rate) Galium spurium” value in test [4] is 5 (Level 5: the growth inhibition rate is greater than 85%). Also, the “Activity level (growth inhibition rate) Monochoria Vaginalis” value in test [5] was 5 (Level 5: the growth inhibition rate is greater than 85%).
